Article PMC10599482 (Chemical Science, 2023)

Test: CD spectroscopy, percent helicity
Assay type: physicochemical
Conditions: 50.0% TFE aqueous solution, 0.1 mg/mL peptide, 20 °C, calculated from [θ]222

## CC[C@H](C)[C@H](NC(=O)[C@H](C)NC(=O)[C@H](CCC(=O)O)NC(=O)[C@H](CCC(=O)O)NC(=O)[C@H](CC(C)C)NC(=O)[C@H](CCCCN)NC(=O)[C@H](CCCCN)NC(=O)[C@H](CCSC)NC(=O)[C@H](CCC(=O)O)NC(=O)[C@H](Cc1ccc(O)cc1)NC(=O)[C@H](CCC(=O)O)NC(=O)[C@H](CC(C)C)NC(=O)[C@H](CC(=O)O)NC(=O)[C@H](CC(C)C)NC(=O)[C@H](Cc1ccccc1)NC(=O)[C@@H](NC(=O)[C@@H](NC(=O)[C@H](CC(N)=O)NC(=O)[C@@H](NC(=O)[C@H](CCC(N)=O)NC(=O)[C@H](CC(=O)O)NC(=O)[C@H](CC(C)C)NC(=O)[C@H](CO)NC(C)=O)[C@@H](C)CC)C(C)C)[C@@H](C)O)C(=O)N[C@@H](CCCCN)C(=O)N[C@@H](CCCCN)C(=O)N[C@@H](CC(C)C)C(=O)N[C@@H](CCC(=O)O)C(=O)N[C@@H](CCC(=O)O)C(=O)N[C@@H](CO)C(=O)N[C@@H](Cc1ccc(O)cc1)C(=O)N[C@H](C(=O)N[C@@H](CC(=O)O)C(=O)N[C@@H](CC(C)C)C(=O)N[C@@H](CCCCN)C(=O)N[C@@H](CCC(=O)O)C(=O)N[C@@H](CC(C)C)C(N)=O)[C@@H](C)CC [EK1]
  α-Helicity (%): 13.6%
